Earlier results as cited in patent US20210060105A1, “GINKGO BILOBA EXTRACT COMPOSITE FORMULATION AND USE OF THE SAME” (priority 2019, published 2021).

What was measured:
[1] = increased from the original 49.7±3.6 mg/dL

SMILES: CC1=C(/C=C/C(C)=C/C=C/C(C)=C/C=C/C=C(C)/C=C/C=C(C)/C=C/C2=C(C)C(=O)[C@@H](O)CC2(C)C)C(C)(C)C[C@H](O)C1=O [Astaxanthin, astaxanthin]
- antioxidant ability relative to vitamin E (compared with vitamin E): 550 times
- antioxidant ability relative to β-carotene (compared with β-carotene): 10 times
- HDL in vivo after astaxanthin [1]: 66.5 ± 5.1 mg/dL
